What was measured:
[1] = target: T1, Bromodomain-containing protein 9 (Homo sapiens) (UniProt Q9H8M2); test: Binding affinity of GST-tagged BRD9 domain (unknown origin) to histone H4Ac (1 to 21 residues) assessed as residual binding at 10 uM by alphascreen analysis relative to control
T1 sequence (whole entry): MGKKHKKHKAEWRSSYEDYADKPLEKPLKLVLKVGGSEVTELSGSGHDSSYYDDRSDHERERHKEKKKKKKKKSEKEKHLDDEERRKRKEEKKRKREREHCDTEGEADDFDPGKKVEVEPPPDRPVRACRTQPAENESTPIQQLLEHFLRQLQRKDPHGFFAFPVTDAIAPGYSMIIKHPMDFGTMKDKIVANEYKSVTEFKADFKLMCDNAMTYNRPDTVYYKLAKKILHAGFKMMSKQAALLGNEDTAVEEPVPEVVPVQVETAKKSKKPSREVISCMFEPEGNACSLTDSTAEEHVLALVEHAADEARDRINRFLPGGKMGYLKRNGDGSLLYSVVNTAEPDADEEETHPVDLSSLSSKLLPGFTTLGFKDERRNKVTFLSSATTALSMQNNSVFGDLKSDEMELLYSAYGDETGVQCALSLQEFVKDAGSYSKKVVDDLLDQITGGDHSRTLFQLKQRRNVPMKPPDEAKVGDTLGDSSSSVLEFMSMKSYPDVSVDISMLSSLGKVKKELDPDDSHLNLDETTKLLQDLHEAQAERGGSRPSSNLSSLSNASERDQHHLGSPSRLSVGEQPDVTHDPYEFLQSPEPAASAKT

[2] = target: T2, Bromodomain-containing protein 9 (Homo sapiens, UniProt Q9H8M2); test: Inhibition of BRD9 (unknown origin) by alpha screen analysis
T2 sequence (Q9H8M2 whole entry): T1 sequence (whole entry)

[3] = target: Bromodomain-containing protein 2 (Homo sapiens) (UniProt P25440); test: Binding affinity of recombinant His-tagged BRD2-BD1 (unknown origin) to histone H4Ac (1 to 21 residues) K5/8/12/Ac-Biotin-OH assessed as residual binding at 10 uM incubated for 30 mins by alphascreen analysis relative to control
[4] = target: Bromodomain-containing protein 2 (Homo sapiens) (UniProt P25440); test: Binding affinity of recombinant His-tagged BRD2-BD2 (unknown origin) to histone H4Ac (1 to 21 residues) K5/8/12/Ac-Biotin-OH assessed as residual binding at 10 uM incubated for 30 mins by alphascreen analysis relative to control
[5] = target: Bromodomain-containing protein 3 (Homo sapiens) (UniProt Q15059); test: Binding affinity of recombinant His-tagged BRD3-BD1 (unknown origin) to histone H4Ac (1 to 21 residues) K5/8/12/Ac-Biotin-OH assessed as residual binding at 10 uM incubated for 30 mins by alphascreen analysis relative to control
[6] = target: Bromodomain-containing protein 3 (Homo sapiens) (UniProt Q15059); test: Binding affinity of recombinant His-tagged BRD3-BD2 (unknown origin) to histone H4Ac (1 to 21 residues) K5/8/12/Ac-Biotin-OH assessed as residual binding at 10 uM incubated for 30 mins by alphascreen analysis relative to control
[7] = target: Bromodomain-containing protein 4 (Homo sapiens) (UniProt O60885); test: Binding affinity of recombinant His-tagged BRD4-BD1 (unknown origin) to histone H4Ac (1 to 21 residues) K5/8/12/Ac-Biotin-OH assessed as residual binding at 10 uM incubated for 30 mins by alphascreen analysis relative to control
[8] = target: Bromodomain-containing protein 4 (Homo sapiens) (UniProt O60885); test: Binding affinity of recombinant His-tagged BRD4-BD2 (unknown origin) to histone H4Ac (1 to 21 residues) K5/8/12/Ac-Biotin-OH assessed as residual binding at 10 uM incubated for 30 mins by alphascreen analysis relative to control
[9] = target: Bromodomain testis-specific protein (Homo sapiens) (UniProt Q58F21); test: Binding affinity of recombinant His-tagged BRDT-BD1 (unknown origin) to histone H4Ac (1 to 21 residues) K5/8/12/Ac-Biotin-OH assessed as residual binding at 10 uM incubated for 30 mins by alphascreen analysis relative to control
[10] = target: Bromodomain adjacent to zinc finger domain protein 2B (Homo sapiens) (UniProt Q9UIF8); test: Binding affinity of recombinant His-tagged BAZ2B (unknown origin) to histone H3 (1 to 21 residues) K9/14Ac-Biotin-OH assessed as residual binding at 10 uM incubated for 30 mins by alphascreen analysis relative to control
[11] = target: CREB-binding protein (Homo sapiens) (UniProt Q92793); test: Binding affinity of recombinant His-tagged CREBBP (unknown origin) to histone H4Ac (1 to 21 residues) K5/8/12/Ac-Biotin-OH assessed as residual binding at 10 uM incubated for 30 mins by alphascreen analysis relative to control
[12] = target: ATPase family AAA domain-containing protein 2 (Homo sapiens) (UniProt Q6PL18); test: Binding affinity of recombinant His-tagged ATAD2 (unknown origin) to histone H4Ac (1 to 21 residues) K5/8/12/Ac-Biotin-OH assessed as residual binding at 10 uM incubated for 30 mins by alphascreen analysis relative to control
[13] = target: Chromatin remodeling regulator CECR2 (Homo sapiens) (UniProt Q9BXF3); test: Binding affinity of recombinant His-tagged CECR2 (unknown origin) to histone H4Ac (1 to 21 residues) K5/8/12/Ac-Biotin-OH assessed as residual binding at 10 uM incubated for 30 mins by alphascreen analysis relative to control
[14] = target: SWI/SNF-related matrix-associated actin-dependent regulator of chromatin subfamily A member 4 (Homo sapiens) (UniProt P51532); test: Binding affinity of recombinant His-tagged SMARCA4 (unknown origin) to histone H3 (1 to 30 residues) K4/18/23/27Ac assessed as residual binding at 10 uM incubated for 30 mins by alphascreen analysis relative to control
[15] = target: Transcription initiation factor TFIID subunit 1 (Homo sapiens) (UniProt P21675); test: Binding affinity of recombinant His-tagged TAF1 (unknown origin) to histone H4Ac (1 to 21 residues) K5/8/12/Ac-Biotin-OH assessed as residual binding at 10 uM incubated for 30 mins by alphascreen analysis relative to control
[16] = target: Bromodomain and PHD finger-containing protein 3 (Homo sapiens) (UniProt Q9ULD4); test: Binding affinity of recombinant His-tagged BRPF-3 (unknown origin) to histone H4Ac (1 to 21 residues) K5/8/12/Ac-Biotin-OH assessed as residual binding at 10 uM incubated for 30 mins by alphascreen analysis relative to control
[17] = target: Bromodomain-containing protein 1 (Homo sapiens) (UniProt O95696); test: Binding affinity of recombinant His-tagged BRD1 (unknown origin) to histone H4Ac (1 to 21 residues) K5/8/12/Ac-Biotin-OH assessed as residual binding at 10 uM incubated for 30 mins by alphascreen analysis relative to control
[18] = target: Nucleosome-remodeling factor subunit BPTF (Homo sapiens) (UniProt Q12830); test: Binding affinity of recombinant His-tagged BPTF (unknown origin) to histone H4Ac (1 to 21 residues) K5/8/12/Ac-Biotin-OH assessed as residual binding at 10 uM incubated for 30 mins by alphascreen analysis relative to control
[19] = target: Bromodomain-containing protein 7 (Homo sapiens) (UniProt Q9NPI1); test: Binding affinity of recombinant His-tagged […] (unknown origin) to histone H3 (1 to 30 residues) K4/18/23/27Ac assessed as residual binding at 10 uM incubated for 30 mins by alphascreen analysis relative to control
[20] = target: Bromodomain-containing protein 7 (Homo sapiens, UniProt Q9NPI1); test: Inhibition of recombinant His-tagged […] (unknown origin) to histone H3 (1 to 30 residues) K4/18/23/27Ac incubated for 30 mins by alphascreen analysis
Jurkat = test: Cytotoxicity against human Jurkat cells assessed as cell viability measured after 24 hrs by MTT assay; type: functional, cell-based
MCF7 = test: Cytotoxicity against human MCF7 cells assessed as cell viability measured after 24 hrs by MTT assay; type: functional, cell-based; settings: MCF7, 24 h
A-375 = test: Cytotoxicity against human A-375 cells assessed as cell viability measured after 24 hrs by MTT assay; type: functional, cell-based; settings: A-375, 24 h
Caco-2 = test: Cytotoxicity against human Caco-2 cells assessed as cell viability measured after 24 hrs by MTT assay; type: functional, cell-based; settings: Caco-2, 24 h
HaCaT = test: Cytotoxicity against human HaCaT cells assessed as cell viability measured after 24 hrs by MTT assay; type: functional, cell-based
[21] = Cytotoxicity against human erythrocytes assessed as cell viability measured after 24 hrs by MTT assay; type: toxicity, cell-based, Erythrocyte

Chain of Bromodomain-containing protein 2 (Homo sapiens) (P25440 whole entry, looked up, the tested form may be a part): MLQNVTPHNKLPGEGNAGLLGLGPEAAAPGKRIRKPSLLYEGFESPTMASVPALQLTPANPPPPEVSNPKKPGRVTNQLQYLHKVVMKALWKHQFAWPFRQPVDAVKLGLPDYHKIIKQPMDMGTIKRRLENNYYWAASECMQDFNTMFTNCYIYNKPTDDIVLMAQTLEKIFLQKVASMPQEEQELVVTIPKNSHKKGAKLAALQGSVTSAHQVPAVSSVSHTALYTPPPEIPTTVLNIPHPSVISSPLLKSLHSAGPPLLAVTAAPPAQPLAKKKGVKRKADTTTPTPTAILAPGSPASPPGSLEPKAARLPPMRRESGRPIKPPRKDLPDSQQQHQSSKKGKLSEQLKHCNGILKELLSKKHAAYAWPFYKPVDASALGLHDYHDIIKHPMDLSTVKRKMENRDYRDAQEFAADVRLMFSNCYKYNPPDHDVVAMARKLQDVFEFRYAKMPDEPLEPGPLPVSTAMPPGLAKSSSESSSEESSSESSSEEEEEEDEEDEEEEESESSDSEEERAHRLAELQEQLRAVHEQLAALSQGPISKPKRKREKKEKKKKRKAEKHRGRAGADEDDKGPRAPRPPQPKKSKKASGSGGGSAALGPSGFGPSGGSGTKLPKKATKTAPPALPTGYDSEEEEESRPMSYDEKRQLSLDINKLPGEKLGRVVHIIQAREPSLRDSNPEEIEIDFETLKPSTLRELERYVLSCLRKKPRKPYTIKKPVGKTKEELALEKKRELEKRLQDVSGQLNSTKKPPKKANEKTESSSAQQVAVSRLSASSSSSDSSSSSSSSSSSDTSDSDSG
Chain of Bromodomain-containing protein 3 (Homo sapiens) (Q15059 2-726 limits assumed): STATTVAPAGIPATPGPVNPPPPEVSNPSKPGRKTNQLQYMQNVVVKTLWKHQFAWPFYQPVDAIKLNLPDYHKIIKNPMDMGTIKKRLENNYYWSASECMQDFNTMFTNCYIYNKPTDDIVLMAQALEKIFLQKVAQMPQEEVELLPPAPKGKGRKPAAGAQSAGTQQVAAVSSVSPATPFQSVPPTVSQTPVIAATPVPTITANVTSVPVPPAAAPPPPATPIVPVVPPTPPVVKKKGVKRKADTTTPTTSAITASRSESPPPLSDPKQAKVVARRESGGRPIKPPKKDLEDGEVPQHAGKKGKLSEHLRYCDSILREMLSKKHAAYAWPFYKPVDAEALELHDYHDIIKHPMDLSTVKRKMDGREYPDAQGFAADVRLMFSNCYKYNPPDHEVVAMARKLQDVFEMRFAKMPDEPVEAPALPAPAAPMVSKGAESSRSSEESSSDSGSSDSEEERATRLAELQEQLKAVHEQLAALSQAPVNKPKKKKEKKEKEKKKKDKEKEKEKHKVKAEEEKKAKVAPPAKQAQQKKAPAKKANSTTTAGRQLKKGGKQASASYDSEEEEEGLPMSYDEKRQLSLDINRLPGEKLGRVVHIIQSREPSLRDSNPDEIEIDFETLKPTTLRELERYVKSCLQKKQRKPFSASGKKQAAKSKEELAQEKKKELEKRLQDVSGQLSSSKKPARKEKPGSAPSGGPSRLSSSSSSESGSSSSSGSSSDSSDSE
Chain of Transcription initiation factor TFIID subunit 1 (Homo sapiens) (P21675 whole entry, the tested form may be a part): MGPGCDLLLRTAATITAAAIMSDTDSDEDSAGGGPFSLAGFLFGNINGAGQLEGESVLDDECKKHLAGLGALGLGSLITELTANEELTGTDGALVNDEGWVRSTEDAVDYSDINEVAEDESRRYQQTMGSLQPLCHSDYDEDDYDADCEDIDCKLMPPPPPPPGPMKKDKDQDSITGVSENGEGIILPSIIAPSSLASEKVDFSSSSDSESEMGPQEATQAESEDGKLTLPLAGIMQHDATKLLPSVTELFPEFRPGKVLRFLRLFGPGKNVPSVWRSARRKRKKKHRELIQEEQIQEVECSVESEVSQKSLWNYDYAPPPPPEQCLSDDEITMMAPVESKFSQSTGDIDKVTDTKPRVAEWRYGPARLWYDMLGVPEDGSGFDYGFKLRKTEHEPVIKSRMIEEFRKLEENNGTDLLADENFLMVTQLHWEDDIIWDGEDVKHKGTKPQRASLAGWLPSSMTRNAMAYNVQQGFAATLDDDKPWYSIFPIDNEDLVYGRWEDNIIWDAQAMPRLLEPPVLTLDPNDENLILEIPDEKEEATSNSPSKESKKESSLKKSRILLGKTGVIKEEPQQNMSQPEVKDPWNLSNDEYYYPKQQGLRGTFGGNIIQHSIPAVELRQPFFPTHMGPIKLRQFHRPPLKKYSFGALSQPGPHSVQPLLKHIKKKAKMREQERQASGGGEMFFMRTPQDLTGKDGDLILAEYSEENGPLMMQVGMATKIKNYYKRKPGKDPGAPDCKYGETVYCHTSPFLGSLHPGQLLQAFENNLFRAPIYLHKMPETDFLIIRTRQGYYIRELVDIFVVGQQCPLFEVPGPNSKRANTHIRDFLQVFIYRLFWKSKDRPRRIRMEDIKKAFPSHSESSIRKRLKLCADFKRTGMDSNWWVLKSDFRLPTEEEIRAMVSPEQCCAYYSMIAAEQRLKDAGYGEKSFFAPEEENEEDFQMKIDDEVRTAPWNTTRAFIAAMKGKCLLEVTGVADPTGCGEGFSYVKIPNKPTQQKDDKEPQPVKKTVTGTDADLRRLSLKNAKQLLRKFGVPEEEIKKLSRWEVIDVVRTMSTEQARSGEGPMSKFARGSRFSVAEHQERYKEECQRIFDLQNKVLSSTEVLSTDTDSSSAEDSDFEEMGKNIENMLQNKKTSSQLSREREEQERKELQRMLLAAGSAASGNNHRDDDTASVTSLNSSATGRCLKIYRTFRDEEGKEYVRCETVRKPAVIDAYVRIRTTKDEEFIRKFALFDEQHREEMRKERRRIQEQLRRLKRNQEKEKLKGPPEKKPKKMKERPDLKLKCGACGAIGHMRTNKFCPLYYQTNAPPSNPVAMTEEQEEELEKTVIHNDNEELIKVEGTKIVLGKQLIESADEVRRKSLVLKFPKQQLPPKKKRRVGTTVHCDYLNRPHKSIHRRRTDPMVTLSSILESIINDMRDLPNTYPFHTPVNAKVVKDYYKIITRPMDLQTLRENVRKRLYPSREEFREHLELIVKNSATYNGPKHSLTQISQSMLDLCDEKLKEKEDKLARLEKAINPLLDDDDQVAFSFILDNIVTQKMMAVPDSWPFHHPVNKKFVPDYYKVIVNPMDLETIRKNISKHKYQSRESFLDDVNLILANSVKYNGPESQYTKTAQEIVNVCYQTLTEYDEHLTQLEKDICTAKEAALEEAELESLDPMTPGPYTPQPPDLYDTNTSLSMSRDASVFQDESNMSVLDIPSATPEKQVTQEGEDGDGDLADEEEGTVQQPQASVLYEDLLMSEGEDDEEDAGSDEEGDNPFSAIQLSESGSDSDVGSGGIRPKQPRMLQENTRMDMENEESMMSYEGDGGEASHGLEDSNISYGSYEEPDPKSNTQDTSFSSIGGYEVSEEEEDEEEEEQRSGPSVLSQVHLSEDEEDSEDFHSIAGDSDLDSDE
Chain of ATPase family AAA domain-containing protein 2 (Homo sapiens) (Q6PL18 whole entry, the tested form may be a part): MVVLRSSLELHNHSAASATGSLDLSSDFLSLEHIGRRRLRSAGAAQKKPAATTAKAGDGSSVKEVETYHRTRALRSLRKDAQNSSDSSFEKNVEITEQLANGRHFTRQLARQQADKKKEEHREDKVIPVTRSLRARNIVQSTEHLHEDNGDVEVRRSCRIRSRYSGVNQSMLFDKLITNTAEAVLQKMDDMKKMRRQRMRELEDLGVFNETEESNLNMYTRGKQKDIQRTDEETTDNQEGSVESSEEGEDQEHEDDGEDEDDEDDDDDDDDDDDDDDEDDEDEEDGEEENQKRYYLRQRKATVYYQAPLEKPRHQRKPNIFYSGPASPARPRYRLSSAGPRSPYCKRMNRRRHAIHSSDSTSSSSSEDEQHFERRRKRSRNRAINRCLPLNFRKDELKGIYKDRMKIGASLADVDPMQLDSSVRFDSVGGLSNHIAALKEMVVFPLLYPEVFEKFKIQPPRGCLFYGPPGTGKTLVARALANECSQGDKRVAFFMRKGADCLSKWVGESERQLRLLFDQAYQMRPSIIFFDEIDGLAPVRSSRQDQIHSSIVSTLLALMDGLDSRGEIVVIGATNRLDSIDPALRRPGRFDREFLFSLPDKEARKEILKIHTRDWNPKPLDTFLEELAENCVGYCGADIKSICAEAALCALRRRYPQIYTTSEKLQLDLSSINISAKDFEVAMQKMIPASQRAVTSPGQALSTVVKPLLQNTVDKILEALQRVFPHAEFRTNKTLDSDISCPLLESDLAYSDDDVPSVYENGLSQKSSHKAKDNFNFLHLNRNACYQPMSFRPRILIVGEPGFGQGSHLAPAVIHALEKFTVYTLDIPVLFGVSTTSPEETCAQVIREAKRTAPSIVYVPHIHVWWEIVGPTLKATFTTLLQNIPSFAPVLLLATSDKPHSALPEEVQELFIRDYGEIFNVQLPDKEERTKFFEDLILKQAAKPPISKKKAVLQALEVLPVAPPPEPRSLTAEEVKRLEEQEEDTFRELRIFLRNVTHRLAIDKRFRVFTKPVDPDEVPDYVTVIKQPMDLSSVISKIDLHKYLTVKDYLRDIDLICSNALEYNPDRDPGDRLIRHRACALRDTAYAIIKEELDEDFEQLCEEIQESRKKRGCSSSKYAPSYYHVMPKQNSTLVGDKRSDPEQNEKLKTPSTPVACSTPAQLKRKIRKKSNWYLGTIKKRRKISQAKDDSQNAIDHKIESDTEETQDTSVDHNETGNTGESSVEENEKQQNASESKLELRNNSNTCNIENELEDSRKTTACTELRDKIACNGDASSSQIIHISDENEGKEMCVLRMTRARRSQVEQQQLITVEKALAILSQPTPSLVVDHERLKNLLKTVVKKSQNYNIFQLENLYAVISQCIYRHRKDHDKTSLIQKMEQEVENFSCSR

- Activity [1]: 21.1%
- IC50 [2]: 0.14 µM
- Activity [3]: 98.9%
- Activity [4]: > 100%
- Activity [5]: 96.5%
- Activity [6]: > 100%
- Activity [7]: > 100%
- Activity [8]: 88.6%
- Activity [9]: > 100%
- Activity [10]: > 100%
- Activity [11]: 97.7%
- Activity [12]: > 100%
- Activity [13]: 92.6%
- Activity [14]: 96.5%
- Activity [15]: 77.7%
- Activity [16]: 94.2%
- Activity [17]: 97.3%
- Activity [18]: 95.5%
- Activity [19]: 75.8%
- IC50 [20]: 71.4 µM
Structure (SMILES): CCc1nn(C)c(=O)n1-c1ccc2c(c1)OCO2
- IC50 (Jurkat): 145 µM
- IC50 (MCF7): 500 µM
- IC50 (A-375): 270 µM
- IC50 (Caco-2): 330 µM
- IC50 (HaCaT): > 500 µM
- IC50 at 24 h [21]: > 500 µM

From ChEMBL document CHEMBL5331094, “Identification of 2,4,5-trisubstituted-2,4-dihydro-3H-1,2,4-triazol-3-one-based small molecules as selective BRD9 binders” (Eur J Med Chem, 2023)
